Here are results for seven molecules from PubChem BioAssay (NCI).

Common to all, as to assay: NCI-60 cell line screen, 48 h
In experiment [1] the test system is RPMI-8226 leukemia.
Experiment [2] has as its system RXF 393 renal.
Experiment [3] concerns IGROV1 ovarian.
Experiment [4] relates to HOP-62 NSCLC.
For experiment [5], the system named is UACC-257 melanoma.
Experiment [6] concerns KM20L2 colon.
For experiment [7], the system named is SF-268 CNS.
The test system of experiment [8] is DMS 114 small cell lung.
Experiment [9] has as its system SNB-75 CNS.
Experiment [10] concerns DLD-1 colon.
Experiment [11] concerns OVCAR-3 ovarian.

Where “and” joins values, the source holds several entries; their conditions need not be identical. Equal entries are not always repeated.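 A five-concentration, 48-hour dose response in 96-well plates underlies each endpoint, interpolated linearly between surrounding concentrations. Here, GI50 denotes the concentration required for 50% inhibition of growth. TGI marks complete inhibition of growth.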 Where only a bound is given, the exact number is not on record here.

As for `CNC(=O)OCc1c(CO)nc(SC)n1C`, the TGI in [1], in experiment [2], in experiment [3], in [4], in [5] and in experiment [6] was more than 100 µM each time. The TGI in experiment [7], in experiment [8], in experiment [9], in experiment [10] and in [11] was more than 100 µM in each case.
`COc1cc2c(ccc3c4cc(OC)c(OC)cc4c[n+](C)c23)cc1O`: the TGI in experiment [1] is more than 75 µM; in experiment [2] it was more than 75 µM; in [3], more than 75 µM; in experiment [4], 21 µM; in experiment [5], more than 75 µM; in [6] it was more than 75 µM. Further, the TGI in experiment [7] was 6.09 µM; in experiment [8] it was 74.7 µM; in experiment [9], 16.4 µM; in experiment [10] it was more than 75 µM; in experiment [11], 54.3 µM.
With `O=C(OCN1C(=O)C2C3C=CC(C2C1=O)C1C2C(=O)N(COC(=O)C4CCCN4)C(=O)C2C31)C1CCCN1` (centres undefined), the TGI in experiment [1] is 54.1 µM; in [2], more than 100 µM; in experiment [3], more than 100 µM; in [4] it was more than 100 µM; in [5], more than 100 µM; in experiment [6], more than 100 µM. Also, the TGI in experiment [7] is more than 78.5 µM; in [8], more than 60.6 µM; in [9], more than 100 µM; in [10], more than 69.7 µM; in experiment [11] it was more than 100 µM.
In the case of `[N-]=[N+]=CC(=O)c1ccccc1C#CCCc1ccccc1`, the TGI in experiment [1] was 50.2 µM; in [2], more than 100 µM; in [3], more than 100 µM; in experiment [4], more than 100 µM; in [5], 94.7 µM; in experiment [6], 62.7 µM. In addition, the TGI in experiment [8] is 23.6 µM; in [9], 61.4 µM; in experiment [10], more than 100 µM; in experiment [11], 61.5 µM.
Regarding `CCCCCCCCC/C=C/C=C/C(=O)NCC(=O)NC1C(O)C(O)C(Nc2ncnc3nc[nH]c23)OC1C(O)CO` (centres undefined), the TGI in experiment [2] is 0.0163 µM; in experiment [3] it was 0.00337 µM; in experiment [5], 0.207 µM; in experiment [6], 0.0186 µM and 0.126 µM; in experiment [7] it was 0.671 µM; in [8], more than 100 µM. Besides, the TGI was 0.018 µM and 0.0703 µM in experiment [9]; 0.0436 µM in experiment [11]. Further, the GI50 in [4] is 0.0011 µM; in experiment [7], 0.00558 µM; in experiment [9], 0.00184 µM; in [10], 0.896 µM.
Regarding `CN(C)CC(CC1=C(CC(CN(C)C)N(C)C)CCC1)N(C)C` (centres undefined), the TGI in [1], in [2], in [3], in experiment [4], in [5] and in experiment [6] was more than 100 µM each time. Further, the TGI in experiment [7], in [8], in experiment [9], in experiment [10] and in experiment [11] was more than 100 µM throughout.
With `COc1ccc(C(=O)c2sc(Nc3ccc(Cl)cc3)nc2N)cc1`, the TGI in experiment [1] was more than 43.5 µM; in experiment [2], more than 54 µM; in [3], more than 53.9 µM; in experiment [4], 38.6 µM; in [5], more than 90.2 µM; in experiment [7] it was 43.3 µM. Also, the results for the TGI in experiment [9] and in [11] were 18.4 µM and 35 µM, respectively.
